In patent US20170320848A1, “COMPOUNDS FOR USE IN ANTHELMINTHIC TREATMENT” (Bayer Animal Health GMBH, priority 2014, published 2017):

What was measured:
[1] = system: Meloidogyne incognita; experiment: Meloidogyne incognita assay (MELGIN), gall formation on salad seedlings; format: in vivo; details: application rate 20 ppm, after 14 days
Protocol: Meloidogyne Incognita—Assay (MELGIN)
Solvent: 125.0 parts by weight of acetone
To produce a suitable preparation, 1 part by weight of active compound is mixed with the stated amount of solvent, and the concentrate is diluted with water to the desired concentration.
Vessels are filled with sand, a solution of the active ingredient, a suspension containing eggs and larvae of the southern root-knot nematode (Meloidogyne incognita) and salad seeds. The salad seeds germinate and the seedlings grow. Galls develop in the roots.
After 14 days the nematicidal activity is determined on the basis of the percentage of gall formation. 100% means no galls were found and 0% means the number of galls found on the roots of the treated plants was equal to that in untreated control plants.

[2] = Measurement of LogP values by HPLC on reversed phase columns (EEC directive 79/831 Annex V.A8); format: physicochemical; details: acidic range, 0.1% formic acid in water and acetonitrile as eluent

SMILES	nematicidal activity (percentage of gall formation) [1]	logP (HCOOH)[a] [2]
Cc1cc(-c2ccc(C#N)cc2)ccc1C(F)(F)CNC(=O)c1ccccc1C(F)(F)F [Example 49]	100%	3.7
Cc1cc(-c2ccc(SC(F)(F)F)cc2)ccc1C(F)(F)CNC(=O)c1ccccc1C(F)(F)F [Example 50]	100%	5.08
O=C(NCC(F)(F)c1ccc(-c2ccc(F)cc2)cc1Cl)c1c(F)cccc1F [Example 60]	100%	3.85
O=C(NCC(F)(F)c1ccc(-c2ccc(F)cc2)cc1Cl)c1nccnc1C(F)(F)F [Example 61]	100%	3.85
O=C(NCC(F)(F)c1ccc(-c2ccc(F)cc2)cc1Cl)c1ncccc1C(F)(F)F [Example 62]	100%	4.05
O=C(NCC(F)(F)c1ccc(-c2ccc(F)cc2)cc1Cl)c1cccnc1Cl [Example 63]	100%	3.46
O=C(NCC(F)(F)c1ccc(-c2ccc(F)cc2)cc1Cl)c1cccnc1I [Example 64]	100%	3.56
O=C(NCC(F)(F)c1ccc(-c2cccc(OC(F)F)c2)cc1Cl)c1ccccc1C(F)(F)F [Example 65]	100%	4.08
O=C(NCC(F)(F)c1ccc(-c2ccc(OC(F)F)cc2)cc1Cl)c1ccccc1C(F)(F)F [Example 68]	100%	4.03
O=C(NCC(F)(F)c1ccc(-c2cccc(Cl)c2)cc1Cl)c1ccccc1C(F)(F)F [Example 69]	100%	4.6
O=C(NCC(F)(F)c1ccc(-c2ccc(Cl)c(Cl)c2)cc1Cl)c1ccccc1C(F)(F)F [Example 70]	90%	4.93
O=C(NCC(F)(F)c1ccc(-c2ccc(F)c(Cl)c2)cc1Cl)c1ccccc1C(F)(F)F [Example 94]	100%	4.57
N#Cc1cc(-c2ccc(C(F)(F)CNC(=O)c3ccccc3C(F)(F)F)c(Cl)c2)ccc1Cl [Example 95]	100%	4.07
N#Cc1ccc(-c2ccc(C(F)(F)CNC(=O)c3ccccc3C(F)(F)F)c(Cl)c2)cc1Cl [Example 105]	100%	4.02
O=C(NCC(F)(F)c1c(F)cc(-c2cc(F)c(F)c(F)c2)cc1F)c1ccccc1C(F)(F)F [Example 108]	90%	4.2
Cc1cc(-c2cc(F)c(F)c(F)c2)ccc1C(F)(F)CNC(=O)c1ccccc1C(F)(F)F [Example 109]	100%	4.48
O=C(NCC(F)(F)c1ccc(-c2cc(F)c(F)c(F)c2)cc1Cl)c1ncccc1C(F)(F)F [Example 112]	100%	4.23
O=C(NCC(F)(F)c1ccc(-c2cc(F)c(F)c(F)c2)cc1Cl)c1ccccc1Cl [Example 115]	100%	4.23
O=C(NCC(F)(F)c1ccc(-c2cc(F)c(F)c(F)c2)cc1Cl)c1c(F)cccc1F [Example 117]	100%	4.05
Cc1cc(-c2ccc(F)cc2F)ccc1C(F)(F)CNC(=O)c1ccccc1C(F)(F)F [Example 119]	100%	4.15
Cc1cc(-c2ccc(F)c(F)c2)ccc1C(F)(F)CNC(=O)c1ccccc1C(F)(F)F [Example 120]	100%	4.2
Cc1cc(-c2ccc(Cl)c(Cl)c2)ccc1C(F)(F)CNC(=O)c1ccccc1C(F)(F)F [Example 122]	100%	4.98
